In patent US6156700A, “3-(1,2-Benzisothiazol- and isoxazol-5-yl)-2,4(1H,3H)-pyrimidinedione or thione and 3-(1,2-benzisothiazol- and isoxazol-5-yl)-4(3H)-pyrimidinone or thione herbicidal agents” (American Cyanmid Company, priority 1998, dated 2000):

Experiments:
CYPIR Rice Flatsedge = test: Postemergence weed control, flooded paddy (Table IV); format: in vivo, Cyperus iria; set-up: scale not given here
Procedure, shortened: (§1)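 Containers holding 3 to 5 cm weeds and rice at the 1.5 to 2.5 leaf stage are flooded and kept 1.5 to 3 cm deep. Test material is applied directly into the water at about 0.0313 to 0.500 kg/ha, then plants are held in the greenhouse for three to four weeks before rating.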

[1] = test system: Velvetleaf, Abutilon theophrasti; test: Postemergence herbicidal evaluation, ABUTH; format: in vivo, Medic.
Procedure, shortened: (§2)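 Greenhouse postemergence test. Seedlings about two weeks old sprayed (40 psi) with compound in 50/50 acetone/water, 0.5% TWEEN 20, at rates near 0.0157–0.500 kg/ha; rated 0–9 by eye at 4–5 weeks.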

[2] = test system: Foxtail, Green, Setaria viridis; test: Postemergence herbicidal evaluation, SETVI; format: in vivo, (L.) Beau
Procedure, shortened: as §2

ORYSAT Rice, Tebonnet [3] = test: Tolerance of transplanted rice to post-transplant application (Table III); format: in vivo, Oryza sativa; set-up: scale not given here; conditions: crop tolerance
Method: The tolerance of transplanted rice to post-transplanted herbicide applications is determined as follows: two ten-day-old rice seedlings (cv. Tebonnet) are transplanted into silt loam soil in 32 oz. plastic containers with a diameter of 10.5 cm and no drainage holes. After transplanting, the containers are flooded and the water level is maintained at 1.5 to 3 cm above the soil surface. Three days after transplanting, the flooded soil surface of the containers is treated with the selected aqueous/acetone 50/50 v/v mixture containing the test compounds to provide the equivalent of about 0.0313 to 0.500 kg/ha of active ingredient. The treated containers are placed on greenhouse benches, watered such that the water level is maintained as stated above, and cared for in accordance with conventional greenhouse procedures. Three to four weeks after treatment, the test is terminated and each container is examined and herbicidal effect rated according to the rating system provided in Example 185. The compounds evaluated are reported by compound number given in Example 185.

CYPSE Flatsedge [4] = test: Preemergence weed control, flooded paddy (Table III); format: in vivo, Cyperus serotinus; set-up: scale not given here
Method: (§3) Preemergence herbicidal activity under flooded paddy conditions is determined as follows: plant seeds or propagating organs are planted in the top 0.5 cm of silt loam soil in 32 oz. plastic containers with a diameter of 10.5 cm and no drainage holes. Water is added to these containers and maintained at 1.5 to 3 cm above the soil surface for the duration of the experiment. The test compounds are applied as aqueous/acetone mixtures 50/50 v/v pipetted directly into the flood water to give the equivalent of about 0.0313 to 0.500 kg/ha of active ingredient. The treated containers are placed on greenhouse benches and cared for in accordance with conventional greenhouse procedures. Three to four weeks after treatment, the test is terminated and each container is examined and herbicidal effect rated according to the rating system provided in Example 185. The compounds evaluated are reported by compound number given in Example 185.

MOOVA Monochoria [5] = test: as above; format: in vivo, Monochoria vaginalis; set-up: scale not given here
Method: as §3

Galium, Galium aparine = test: Postemergence herbicidal evaluation, GALAP; format: in vivo
Procedure, shortened: as §2

[6] = test system: SAGPY Arrowhead (Pygmaea); test: Postemergence weed control, flooded paddy (Table IV); format: in vivo, Sagittaria pygmaea; set-up: scale not given here
Procedure, shortened: as §1

[7] = test system: Rice, Tebonnet, Oryza sativa; test: Preemergence herbicidal evaluation, ORYSAT; format: in vivo, (L.) Tebonnet; conditions: 0.2500 kg/ha
Procedure, shortened: (§4)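 Sow seeds in soil-filled cups; spray aqueous acetone compound solution at about 0.0156–0.500 kg/ha; keep on greenhouse benches with routine watering; after four to five weeks, rate visual injury 0–9 compared with control plants.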

[8] = test system: Morningglory Spp., Ipomoea Spp.; test: Postemergence herbicidal evaluation, IPOSS; format: in vivo; conditions: 0.2500 kg/ha
Method: In the tests, seedling plants are grown in jiffy flats for about two weeks. The test compounds are dispersed in 50/50 acetone/water mixtures containing 0.5% TWEEN®20, a polyoxyethylene sorbitan monolaurate surfactant of Atlas Chemical Industries, in sufficient quantities to provide the equivalent of about 0.0157 kg to 0.500 kg per hectare of active compound when applied to the plants through a spray nozzle operating at 40 psi for a predetermined time. After spraying, the plants are placed on greenhouse benches and are cared for in accordance with conventional greenhouse procedures. From four to five weeks after treatment, the seedling plants are examined and rated according to the rating system set forth below. Where more than one test is involved for a given compound, the data are averaged.
Results of herbicide evaluation are expressed on a rating scale (0-9). The scale is based upon a visual observation of plant stand, vigor, malformation, size, chlorosis and overall plant appearance as compared with a control.

MOOVA Monochoria [9] = test: Postemergence weed control, flooded paddy (Table IV); format: in vivo, Monochoria vaginalis; set-up: scale not given here
Procedure, shortened: as §1

ORYSAT Rice, Tebonnet [10] = test: Rice tolerance, flooded paddy (Table IV); format: in vivo, Oryza sativa; set-up: scale not given here; conditions: crop tolerance
Procedure, shortened: as §1

[11] = test system: Wheat, Winter, cv Riband, Triticum aestivum; test: Preemergence herbicidal evaluation, TRZAWR; format: in vivo; conditions: 0.2500 kg/ha
Procedure, shortened: as §4

[12] = test system: Ragweed, Common, Ambrosia artemisifolia; test: Preemergence herbicidal evaluation, AMBEL; format: in vivo, L.; conditions: 0.2500 kg/ha
Procedure, shortened: as §4

[13] = test system: Sicklepod, Cassia obtusifolia; test: Postemergence herbicidal evaluation, CASOB; format: in vivo, L.
Procedure, shortened: as §2

CYPSE Flatsedge [14] = test: Postemergence weed control, flooded paddy (Table IV); format: in vivo, Cyperus serotinus; set-up: scale not given here
Procedure, shortened: as §1

COC(=O)C(C)Oc1ccc(C)cc1-c1nsc2ccc(-n3c(=O)cc(C(F)(F)F)n(C)c3=O)cc12 (stereo not drawn) [Compound 3]
herbicidal effect rating (CYPIR Rice Flatsedge; 0.1250 kg/ha): 9.0 | herbicidal effect rating (CYPIR Rice Flatsedge; 0.2500 kg/ha): 9.0 | herbicidal effect rating (CYPIR Rice Flatsedge; 0.5000 kg/ha): 9.0 | herbicide rating (0-9) ([1]; 0.0630 kg/ha): 9.0 | herbicide rating (0-9) ([1]; 0.2500 kg/ha): 9.0 | herbicide rating (0-9) ([2]; 0.0630 kg/ha): 9.0 | herbicide rating (0-9) ([2]; 0.2500 kg/ha): 9.0 | herbicidal effect rating (ORYSAT Rice, Tebonnet [3]; 0.0313 kg/ha): 2.0 | herbicidal effect rating (ORYSAT Rice, Tebonnet [3]; 0.0625 kg/ha): 2.0 | herbicidal effect rating (ORYSAT Rice, Tebonnet [3]; 0.1250 kg/ha): 3.0 | herbicidal effect rating (ORYSAT Rice, Tebonnet [3]; 0.2500 kg/ha): 4.0 | herbicidal effect rating (ORYSAT Rice, Tebonnet [3]; 0.5000 kg/ha): 4.0 | herbicidal effect rating (CYPSE Flatsedge [4]; 0.0313 kg/ha): 0.0 | herbicidal effect rating (CYPSE Flatsedge [4]; 0.0625 kg/ha): 0.0 | herbicidal effect rating (CYPSE Flatsedge [4]; 0.1250 kg/ha): 0.0 | herbicidal effect rating (CYPSE Flatsedge [4]; 0.2500 kg/ha): 2.0 | herbicidal effect rating (CYPSE Flatsedge [4]; 0.5000 kg/ha): 4.0 | herbicidal effect rating (MOOVA Monochoria [5]; 0.0313 kg/ha): 9.0 | herbicidal effect rating (MOOVA Monochoria [5]; 0.0625 kg/ha): 9.0 | herbicidal effect rating (MOOVA Monochoria [5]; 0.1250 kg/ha): 9.0 | herbicidal effect rating (MOOVA Monochoria [5]; 0.2500 kg/ha): 9.0 | herbicidal effect rating (MOOVA Monochoria [5]; 0.5000 kg/ha): 9.0 | herbicide rating (0-9) (Galium, Galium aparine; 0.0630 kg/ha): 9.0 | herbicidal effect rating ([6]; 0.1250 kg/ha): 0.0 | herbicidal effect rating ([6]; 0.2500 kg/ha): 0.0 | herbicidal effect rating ([6]; 0.5000 kg/ha): 0.0 | herbicide rating (0-9) [7]: 6.8 | herbicide rating (0-9) [8]: 9.0 | herbicidal effect rating (MOOVA Monochoria [9]; 0.1250 kg/ha): 9.0 | herbicidal effect rating (MOOVA Monochoria [9]; 0.2500 kg/ha): 9.0 | herbicidal effect rating (MOOVA Monochoria [9]; 0.5000 kg/ha): 9.0 | herbicidal effect rating (ORYSAT Rice, Tebonnet [10]; 0.1250 kg/ha): 3.0 | herbicidal effect rating (ORYSAT Rice, Tebonnet [10]; 0.2500 kg/ha): 3.0 | herbicidal effect rating (ORYSAT Rice, Tebonnet [10]; 0.5000 kg/ha): 3.0 | herbicide rating (0-9) [11]: 6.3 | herbicide rating (0-9) [12]: 9.0 | herbicide rating (0-9) ([13]; 0.0630 kg/ha): 9.0 | herbicide rating (0-9) ([13]; 0.2500 kg/ha): 9.0 | herbicidal effect rating (CYPSE Flatsedge [14]; 0.1250 kg/ha): 0.0 | herbicidal effect rating (CYPSE Flatsedge [14]; 0.2500 kg/ha): 0.0 | herbicidal effect rating (CYPSE Flatsedge [14]; 0.5000 kg/ha): 0.0

Cn1c(C(F)(F)F)cc(=O)n(-c2ccc3snc(-c4ccccc4)c3c2)c1=O [Compound 4, 1-Methyl-3-(3-phenyl-1,2-benzisothiazol-5-yl)-6-(trifluoromethyl)-2,4(1H,3H)-pyrimidinedione]
herbicidal effect rating (CYPIR Rice Flatsedge; 0.1250 kg/ha): 9.0 | herbicidal effect rating (CYPIR Rice Flatsedge; 0.2500 kg/ha): 9.0 | herbicidal effect rating (CYPIR Rice Flatsedge; 0.5000 kg/ha): 9.0 | herbicide rating (0-9) ([1]; 0.2500 kg/ha): 9.0 | herbicide rating (0-9) ([2]; 0.2500 kg/ha): 9.0 | herbicidal effect rating (ORYSAT Rice, Tebonnet [3]; 0.0313 kg/ha): 4.0 | herbicidal effect rating (ORYSAT Rice, Tebonnet [3]; 0.0625 kg/ha): 7.0 | herbicidal effect rating (ORYSAT Rice, Tebonnet [3]; 0.1250 kg/ha): 7.0 | herbicidal effect rating (ORYSAT Rice, Tebonnet [3]; 0.2500 kg/ha): 8.0 | herbicidal effect rating (ORYSAT Rice, Tebonnet [3]; 0.5000 kg/ha): 8.0 | herbicidal effect rating (CYPSE Flatsedge [4]; 0.0625 kg/ha): 2.0 | herbicidal effect rating (CYPSE Flatsedge [4]; 0.1250 kg/ha): 9.0 | herbicidal effect rating (CYPSE Flatsedge [4]; 0.2500 kg/ha): 9.0 | herbicidal effect rating (CYPSE Flatsedge [4]; 0.5000 kg/ha): 9.0 | herbicidal effect rating (MOOVA Monochoria [5]; 0.0313 kg/ha): 9.0 | herbicidal effect rating (MOOVA Monochoria [5]; 0.0625 kg/ha): 9.0 | herbicidal effect rating (MOOVA Monochoria [5]; 0.1250 kg/ha): 9.0 | herbicidal effect rating (MOOVA Monochoria [5]; 0.2500 kg/ha): 9.0 | herbicidal effect rating (MOOVA Monochoria [5]; 0.5000 kg/ha): 9.0 | herbicide rating (0-9) (Galium, Galium aparine; 0.2500 kg/ha): 9.0 | herbicidal effect rating ([6]; 0.1250 kg/ha): 6.0 | herbicidal effect rating ([6]; 0.2500 kg/ha): 9.0 | herbicidal effect rating ([6]; 0.5000 kg/ha): 9.0 | herbicide rating (0-9) [7]: 7.0 | herbicide rating (0-9) [8]: 9.0 | herbicidal effect rating (MOOVA Monochoria [9]; 0.1250 kg/ha): 9.0 | herbicidal effect rating (MOOVA Monochoria [9]; 0.2500 kg/ha): 9.0 | herbicidal effect rating (MOOVA Monochoria [9]; 0.5000 kg/ha): 9.0 | herbicidal effect rating (ORYSAT Rice, Tebonnet [10]; 0.1250 kg/ha): 7.0 | herbicidal effect rating (ORYSAT Rice, Tebonnet [10]; 0.2500 kg/ha): 8.0 | herbicidal effect rating (ORYSAT Rice, Tebonnet [10]; 0.5000 kg/ha): 8.0 | herbicide rating (0-9) [11]: 7.0 | herbicide rating (0-9) [12]: 9.0 | herbicide rating (0-9) ([13]; 0.2500 kg/ha): 9.0 | herbicidal effect rating (CYPSE Flatsedge [14]; 0.1250 kg/ha): 7.0 | herbicidal effect rating (CYPSE Flatsedge [14]; 0.2500 kg/ha): 7.0 | herbicidal effect rating (CYPSE Flatsedge [14]; 0.5000 kg/ha): 9.0
